Each structure is given as a SMILES string. Where “and” joins values, the source holds several entries; their conditions need not be identical. Identical values can stand only once. Inconclusive results and toxic doses are left out.

We go through 20 compounds from PubChem BioAssay AID330 (DTP/NCI, 2004).

In the test the test system is P388 leukemia ip, CD2F1 mice, survival T/C. The test can be described thus: NCI In Vivo Anticancer Drug Screen. Data for tumor model P388 Leukemia (intraperitoneal) in CD2F1 (CDF1) mice. The following applies: endpoint: median survival time, higher = longer survival. An outline of the steps: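 Mice carrying the transplanted tumor received test compound or vehicle. Survival was recorded in each group, and the value is the treated-group measurement divided by that of the vehicle-treated control group.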

[1] abbreviates: dose: 50.0 mg/kg/injection, schedule: Q01DX009 (ip), vehicle: saline with Tween-80.
Setting [2] is: dose: 50.0 mg/kg/injection, schedule: Q01DX009 (ip), vehicle: saline.
Where [3] appears, read: dose: 100.0 mg/kg/injection, schedule: Q01DX009 (ip), vehicle: saline with Tween-80.
[4] abbreviates: dose: 400.0 mg/kg/injection, schedule: Q01DX009 (ip), vehicle: saline with Tween-80.
[5] abbreviates: dose: 60.0 mg/kg/injection, schedule: Q01DX005 (ip), vehicle: saline with Tween-80.
Setting [6] is: dose: 12.5 mg/kg/injection, schedule: Q01DX009 (ip), vehicle: saline with Tween-80.
Setting [7] is: dose: 25.0 mg/kg/injection, schedule: Q01DX009 (ip), vehicle: saline with Tween-80.
The mark [8] stands for this setting: dose: 200.0 mg/kg/injection, schedule: Q01DX009 (ip), vehicle: saline with Tween-80.
Where [9] appears, read: dose: 50.0 mg/kg/injection, schedule: Q01DX009 (ip), vehicle: Klucel (hydroxypropylcellulose) (HPC).
Where [10] appears, read: dose: 100.0 mg/kg/injection, schedule: Q01DX009 (ip), vehicle: Klucel (hydroxypropylcellulose) (HPC).
Setting [11] is: dose: 200.0 mg/kg/injection, schedule: Q01DX009 (ip), vehicle: Klucel (hydroxypropylcellulose) (HPC).

For the compound `NC(=O)SCC(N)C(=O)O` (centres undefined), the T/C reads like this: under setting [1], 111 % of control; under setting [2], 108 % of control; (dose: 50.0 mg/kg/injection, schedule: Q01DX009 (ip), vehicle: suspension in saline) 108 % of control; under setting [3], 114 % of control and 119 % of control; (dose: 100.0 mg/kg/injection, schedule: Q01DX009 (ip), vehicle: suspension in saline) 121 % of control; under setting [4], 101 % of control. Also, the T/C (dose: 400.0 mg/kg/injection, schedule: Q01DX009 (ip), vehicle: saline) was 98 % of control and 93 % of control.

With `CCCCCCCN(CCCCCCC)CC(O)c1c(Br)c2cc(Br)ccc2c2ccc(Br)cc12` (centres undefined), the T/C runs as follows: (dose: 1.25 mg/kg/injection, schedule: Q01DX009 (ip), vehicle: saline with Tween-80) 105 % of control; (dose: 2.5 mg/kg/injection, schedule: Q01DX009 (ip), vehicle: saline with Tween-80) 106 % of control; (dose: 5.0 mg/kg/injection, schedule: Q01DX009 (ip), vehicle: saline with Tween-80) 100 % of control.

`CCCCCCCCCCCCCC[N+](C)(CC(=O)[O-])Cc1ccccc1` (centres undefined): the T/C reads like this: (dose: 15.0 mg/kg/injection, schedule: Q01DX005 (ip), vehicle: saline with Tween-80) 108 % of control; (dose: 30.0 mg/kg/injection, schedule: Q01DX005 (ip), vehicle: saline with Tween-80) 93 % of control; under setting [5], 101 % of control.

With `CCN(CC)CCOc1ccc(Cl)c(Cl)c1`, the T/C reads like this: (dose: 50.0 mg/kg/injection, schedule: Q01DX005 (ip), vehicle: saline with Tween-80) 101 % of control; (dose: 100.0 mg/kg/injection, schedule: Q01DX005 (ip), vehicle: saline with Tween-80) 106 % of control; (dose: 200.0 mg/kg/injection, schedule: Q01DX005 (ip), vehicle: saline with Tween-80) 106 % of control.

Consider `C[n+]1ccc(CCNC2CCC(N=NC3CCC([N+](=O)[O-])CC3)CC2)cc1` (centres undefined), for which the T/C is 105 % of control and 92 % of control under setting [2]; 108 % of control (dose: 100.0 mg/kg/injection, schedule: Q01DX009 (ip), vehicle: saline); 102 % of control and 118 % of control (dose: 200.0 mg/kg/injection, schedule: Q01DX009 (ip), vehicle: saline).

For the compound `Cc1cc(CSCCc2nc3ccccc3[nH]2)c(O)c(CSCCc2nc3ccccc3[nH]2)c1`, the T/C is, setting by setting: under setting [5], 107 % of control; (dose: 120.0 mg/kg/injection, schedule: Q01DX005 (ip), vehicle: saline with Tween-80) 93 % of control; (dose: 240.0 mg/kg/injection, schedule: Q01DX005 (ip), vehicle: saline with Tween-80) 90 % of control.

With `CC(=NCc1ccccc1)NO`, the T/C is 97 % of control (dose: 50.0 mg/kg/injection, schedule: Q01DX005 (ip), vehicle: saline) and 96 % of control (dose: 100.0 mg/kg/injection, schedule: Q01DX005 (ip), vehicle: saline).

Regarding `NS(=O)(=O)Oc1ccccc1C(=O)Oc1ccccc1Cl`, the T/C (dose: 60.0 mg/kg/injection, schedule: Q01DX005 (ip), vehicle: Klucel (hydroxypropylcellulose) (HPC)) is 99 % of control; the T/C (dose: 120.0 mg/kg/injection, schedule: Q01DX005 (ip), vehicle: Klucel (hydroxypropylcellulose) (HPC)) was 99 % of control; the T/C (dose: 240.0 mg/kg/injection, schedule: Q01DX005 (ip), vehicle: Klucel (hydroxypropylcellulose) (HPC)) was 94 % of control.

Consider `O=C(C[n+]1ccccc1)N/N=C/c1cccc([N+](=O)[O-])c1`, for which the T/C is 102 % of control under setting [6], 99 % of control under setting [7] and 103 % of control under setting [1].

In the case of `CN(C)CCCNc1ccc(O)c2c1C(=O)c1ccccc1C2=O`, the T/C is, setting by setting: (dose: 12.5 mg/kg/injection, schedule: Q01DX009 (ip), vehicle: water) 93 % of control; (dose: 25.0 mg/kg/injection, schedule: Q01DX009 (ip), vehicle: water) 97 % of control; (dose: 50.0 mg/kg/injection, schedule: Q01DX009 (ip), vehicle: water) 96 % of control; (dose: 100.0 mg/kg/injection, schedule: Q01DX009 (ip), vehicle: water) 104 % of control.

With `CC(C)(C)OOC(=O)c1ccccc1O`, the T/C runs as follows: (dose: 100.0 mg/kg/injection, schedule: Q04DX003 (ip), vehicle: saline sonified) 100 % of control; (dose: 200.0 mg/kg/injection, schedule: Q04DX003 (ip), vehicle: saline sonified) 100 % of control.

Regarding `CC[CH2][Sn]([Cl])([Cl])[CH2]CC.Oc1ccccc1C=NCCN=Cc1ccccc1O`, the T/C was 111 % of control (dose: 0.6 mg/kg/injection, schedule: Q01DX009 (ip), vehicle: gum acacia) and 159 % of control (dose: 5.0 mg/kg/injection, schedule: Q01DX009 (ip), vehicle: gum acacia).

Regarding `O=c1oc2cc(N=Cc3ccccc3Cl)ccc2c2ccccc12`, the T/C reads like this: (dose: 6.25 mg/kg/injection, schedule: Q01DX009 (ip), vehicle: saline) 90 % of control; (dose: 12.5 mg/kg/injection, schedule: Q01DX009 (ip), vehicle: saline) 90 % of control; (dose: 25.0 mg/kg/injection, schedule: Q01DX009 (ip), vehicle: saline) 91 % of control; under setting [1], 98 % of control; under setting [2], 91 % of control; under setting [3], 114 % of control. The T/C reads like this: under setting [8], 113 % of control; under setting [4], 87 % of control.

For `Clc1ccc(CC(Cn2ccnc2)c2ccccc2Cl)cc1` (centres undefined), the T/C by setting is: under setting [1], 94 % of control; under setting [3], 86 % of control.

For `C=C1C(=O)OC2/C=C(/C)C(OC(C)=O)CC(O)/C(C)=C\C(OC(=O)/C(C)=C\C)C12` (centres undefined), the T/C under setting [6] was 100 % of control, the T/C under setting [7] is 117 % of control, the T/C under setting [1] is 118 % of control and the T/C under setting [3] was 114 % of control.

As for `S=C1SCCCN1Cc1ccc(Cl)cc1`, the T/C reads like this: under setting [9], 95 % of control; under setting [10], 104 % of control; under setting [11], 107 % of control.

With `COC(=O)c1cccc2c1Oc1c(cccc1C(=O)OC)S2`, the T/C was 109 % of control (dose: 100.0 mg/kg/injection, schedule: Q04DX002 (ip), vehicle: Klucel (hydroxypropylcellulose) (HPC)); 115 % of control (dose: 200.0 mg/kg/injection, schedule: Q04DX002 (ip), vehicle: Klucel (hydroxypropylcellulose) (HPC)); 117 % of control (dose: 400.0 mg/kg/injection, schedule: Q04DX002 (ip), vehicle: Klucel (hydroxypropylcellulose) (HPC)).

On to `Cc1cccc(/C=N/NC(N)=S)n1`, for which the T/C is, setting by setting: (dose: 15.0 mg/kg/injection, schedule: Q04DX002 (ip), vehicle: saline with Tween-80) 105 % of control; (dose: 30.0 mg/kg/injection, schedule: Q04DX002 (ip), vehicle: saline with Tween-80) 106 % of control; (dose: 60.0 mg/kg/injection, schedule: Q04DX002 (ip), vehicle: saline with Tween-80) 106 % of control.

For the compound `Cn1cccc1[N+](=O)[O-]`, the T/C by setting is: under setting [6], 100 % of control; under setting [7], 101 % of control; under setting [1], 100 % of control and 104 % of control; under setting [3], 101 % of control; under setting [8], 108 % of control.

On to `COc1ccc(C2=CC(c3ccc(OC)cc3)(c3ccc(C(F)(F)F)cc3)C=C(c3ccc(OC)cc3)S2)cc1`, for which the T/C under setting [9] was 97 % of control, the T/C under setting [10] is 93 % of control and the T/C under setting [11] is 90 % of control.
